Measured values from patent US10246442B2, “4-Aminoquinazolin compounds as prolyl hydroxylase inhibitors” (JANSSEN PHARMACEUTICA NV, priority 2011, dated 2019).

How the values were obtained:
HIF1-α, Hela cells = assay: Cellular assay for HIF1-α in Hela cells; assay type: cell-based; details: Homo sapiens, 100 μM compound, 6 hours, percent of HIF stimulation relative to assay control compound 7-[(4-Chloro-phenyl)-(5-methyl-isoxazol-3-ylamino)-methyl]-quinolin-8-ol
Protocol: Cellular Assay for HIF1-α
Hela cells (ATCC, Manassas, Va.) were plated in 96-well plates at 20,000 cells per well in 100 μl of DMEM containing 10% fetal bovine serum, 1% non-essential amino acids, 50 IU/mL of penicillin and 50 μg/mL of streptomycin (all cell culture reagents from Invitrogen, Carlsbad, Calif.). 24 hours after plating, changed media to 100 ul of DMEM without 10% fetal bovine serum, 1.1 μl of the stock solution for each compound was added and incubated for 6 hours. All compounds were tested with a final compound concentration of 100 μM. The supernatant was removed and the cells were lysed in 55 μl of MSD lysis buffer containing protease inhibitors. 50 μl of the cell lysate was then transferred to a blocked MSD human HIF-1α detection plate (Meso-Scale Discovery, Gaithersburg, Md., as per manufacturers protocol), and incubated at room temperature on an orbital shaker for 2 hour. After 3 washes in PBS, 25 μl of 20 nM anti-HIF1α a detection antibody was added and incubated for 1 hour at room temperature on an orbital shaker. After 3 washes in PBS, 150 μl of 1× read buffer was added and the plate was then read on a MSD SECTOR instrument. Data was analyzed by determining the percent of HIF stimulation in the presence of 100 μM compound relative to an assay control compound, 7-[(4-Chloro-phenyl)-(5-methyl-isoxazol-3-ylamino)-methyl]-quinolin-8-ol.

PHD2181-417 = PHD2181-417 (Homo sapiens (Human), UniProt Q9GZT9); assay: PHD enzymatic assay ([14C]-succinic acid production); assay type: biochemical; details: purified PHD2181-417, HIF-1α peptide substrate, 30 min pre-incubation; average of results
Sequence of PHD2181-417 (Q9GZT9 181-417): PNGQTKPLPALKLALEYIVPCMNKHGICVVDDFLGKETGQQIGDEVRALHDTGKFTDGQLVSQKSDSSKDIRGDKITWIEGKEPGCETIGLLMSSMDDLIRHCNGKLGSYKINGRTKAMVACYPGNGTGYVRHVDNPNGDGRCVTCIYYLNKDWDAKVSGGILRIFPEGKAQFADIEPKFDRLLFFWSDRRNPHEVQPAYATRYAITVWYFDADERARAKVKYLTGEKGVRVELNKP
Outline: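 Recombinant human PHD2 (aa 181-417, E. coli-expressed, tags cleaved) with peptide substrate (10 μM) and [5-14C]-2-oxoglutarate in Tris pH 7.5 with catalase, DTT and ascorbate, 10 min reaction after 30 min compound pre-incubation; compounds at 100 μM final, 1% DMSO. [14C]-succinate separated by DNP precipitation and beta-counted; IC50 from three-parameter logistic fit.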

[1] = tested on: Erythropoietin secretion, Hep-3B cells; assay: Cellular assay: EPO secretion in Hep-3B cells; assay type: cell-based; details: Homo sapiens, Hep3B, 100 μM compound, 24 hours, percent of EPO secretion relative to assay control compound 7-[(4-Chloro-phenyl)-(5-methyl-isoxazol-3-ylamino)-methyl]-quinolin-8-ol, read-out: Cellular % EPO Stimulation
Outline: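 Compounds at 100 μM final were added to Hep-3B cells 24 h after plating and left for 24 h. Secreted EPO in supernatant measured by MSD electrochemiluminescence immunoassay. Reported as percent EPO secretion relative to an 8-hydroxyquinoline reference control compound.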

SMILES	Enzyme pIC50 (PHD2181-417)	activation at 100 µM (HIF1-α, Hela cells) [%]	activation at 100 µM [1] [%]
CCN(CC)c1nc(-n2cc(C(=O)O)cn2)nc2ccc(N3CCCCC3)cc12 [Example 88, 1-(4-(Diethylamino)-6-(piperidin-1-yl)quinazolin-2-yl)-1H-pyrazole-4-carboxylic acid]	7.0	122	94
CCCCN(CCCC)c1nc(-n2cc(C(=O)O)cn2)nc2cc(Oc3ccccc3)ccc12 [Example 92, 1-(4-(Dibutylamino)-7-phenoxyquinazolin-2-yl)-1H-pyrazole-4-carboxylic acid]	7.1	4.1	–
CCN(C)c1nc(-n2cc(C(=O)O)cn2)nc2cc(Oc3ccccc3)ccc12 [Example 94, 1-(4-(Ethyl(methyl)amino)-7-phenoxyquinazolin-2-yl)-1H-pyrazole-4-carboxylic acid]	7.2	83	–
COCCN(C)c1nc(-n2cc(C(=O)O)cn2)nc2cc(Oc3ccccc3)ccc12 [Example 95, 1-(4-((2-Methoxyethyl)(methyl)amino)-7-phenoxyquinazolin-2-yl)-1H-pyrazole-4-carboxylic acid]	6.8	46	–
CCN(CC)c1nc(-n2cc(C(=O)O)cn2)nc2cc(Br)ccc12 [Example 96, 1-(7-Bromo-4-(diethylamino)quinazolin-2-yl)-1H-pyrazole-4-carboxylic acid]	6.9	72	–
O=C(O)c1cnn(-c2nc(NCC3CC3)c3ccc(Oc4ccccc4)cc3n2)c1 [Example 98, 1-(4-((Cyclopropylmethyl)amino)-7-phenoxyquinazolin-2-yl)-1H-pyrazole-4-carboxylic acid]	6.7	46	–
CC(C)(C)Nc1nc(-n2cc(C(=O)O)cn2)nc2cc(Oc3ccccc3)ccc12 [Example 99, 1-(4-(tert-Butylamino)-7-phenoxyquinazolin-2-yl)-1H-pyrazole-4-carboxylic acid]	6.3	31	–

Further lines, with some results ahead:

Enzyme pIC50 (PHD2181-417)	SMILES	activation at 100 µM (HIF1-α, Hela cells) [%]	activation at 100 µM [1] [%]
7.3	O=C(O)c1cnn(-c2nc(N3CCCC3)c3ccc(Oc4ccccc4)cc3n2)c1 [Example 78, 1-(7-Phenoxy-4-(pyrrolidin-1-yl)quinazolin-2-yl)-1H-pyrazole-4-carboxylic acid]	64	38
6.3	O=C(O)c1cnn(-c2nc(N3CCSCC3)c3ccc(Oc4ccccc4)cc3n2)c1 [Example 90, 1-(7-Phenoxy-4-thiomorpholinoquinazolin-2-yl)-1H-pyrazole-4-carboxylic acid]	7.7	–
6.3	O=C(O)c1cnn(-c2nc(N3CCC(F)CC3)c3ccc(Oc4ccccc4)cc3n2)c1 [Example 91, 1-(4-(4-Fluoropiperidin-1-yl)-7-phenoxyquinazolin-2-yl)-1H-pyrazole-4-carboxylic acid]	18	–
7.0	O=C(O)c1cnn(-c2nc(NC3CCCCC3)c3ccc(Oc4ccccc4)cc3n2)c1 [Example 97, 1-(4-(Cyclohexylamino)-7-phenoxyquinazolin-2-yl)-1H-pyrazole-4-carboxylic acid]	55	–
